Experimental data taken from patent publication US12540164B2, “Peptides for treatment and prevention of nonalcoholic fatty liver disease and fibrosis” (UNIVERSITE DE STRASBOURG, priority 2017, dated 2026).
Entries after “also recorded” stand apart in the source; their conditions may differ. Ends that are not written are not given here.

Tests used:
FABP4 = FABP4 ELISA on liver extracts; assay type: in vivo; conditions: 3 months after single injection, DIO male mice
Description: (§1) LOXL2 is the enzyme promoting the development of fibrotic lesions by favoring the polymerization of collagen and FABP4 is a protein involved in lipid metabolism whose level increases with increasing lipid deposition in the liver.
(§2) For the measurements on the liver extracts, the same kit for LOXL2 was used and for FABP4, the commercial kit used was the Elisa kit for Fatty Acid Binding Protein 4, Adipocyte (FABP4), SEB693Mu, Cloud Clone Corp.

LOXL2 [1] = experiment: LOXL2 ELISA on liver extracts; assay type: in vivo; conditions: 3 months post unique injection in subcutaneous adipose tissue, DIO male mice, n=4
Description: as §1
(§3) For LOXL2 and GLP-1 measurements, the two commercially available kits: Lysyl Oxydase Like Protein 2 (LOXL2), Enzyme-linked Immunosorbent Assay Kit, Mus musculus, SEF552Mu, Cloud Clone Corp;
as §2

[2] = STAM model of non-alcoholic steatohepatitis: liver triglyceride content; assay type: in vivo; conditions: STAM NASH mice
Description: NASH was induced in 12 male mice by a single subcutaneous injection of 200 μg streptozotocin (STZ, Sigma-Aldrich, USA) solution 2 days after birth and feeding with high fat diet (HFD, 57 kcal % fat, Cat #HFD32, CLEA Japan, Inc., Japan) after 4 weeks of age.
The peptide was administered subcutaneously in the adipose tissue in a volume of […] per mouse.
The peptide was administered at a dose of 25 microgram (μg) per mouse once weekly.
Liver total lipid-extracts were obtained by Folch's method (Folch J. et al., J. Biol. Chem. 1957; 226: 497). Liver samples were homogenized in chloroform-methanol (2:1, v/v) and incubated overnight at room temperature. After washing with chloroform-methanol-water (8:4:3, v/v/v), the extracts were evaporated to dryness, and dissolved in isopropanol. Liver triglyceride content was measured by Triglyceride E-test (Wako Pure Chemical Industries, Ltd., Japan).
Six NASH mice were subcutaneously in the adipose tissue administered vehicle supplemented with ADPIF peptide at a dose of […] per mouse once weekly from 4 to 9 weeks of age.

LOXL2 [3] = experiment: Immunostaining of liver cryosections for LOXL2 (DIO-NASH); assay type: in vivo; conditions: DIO-NASH mice, 3 months after injection in subcutaneous adipose tissue; vs untreated
Description: (§4) For immunofluorescence experiments, liver and kidneys freshly sampled were included in Optimal Cutting Temperature Compound™ (OCT™, Catalog #4583, Tissue-Tek® OCT™, Sakura® Finetek, Torrance, California, USA) and cryosections of 7 μm were cut with Cryostat Leica CM1950. Cryosections were washed with 1×PBS and fixated in 4% formaldehyde solution for 15 min (Catalog #: F555-4L, Sigma-Aldrich, Saint-Louis, Missouri, USA) and then permeabilized with 0.02% SDS-PBS for 30 seconds. Blocking solution was 5%-Bovine Serum Albumin (BSA) in PBS. Primary antibodies were diluted in blocking solution and incubated overnight and indicated secondary antibodies were diluted in PBS for 30 minutes. Nuclei were counterstained with Hoechst (Catalog #: D1306, Invitrogen, Carlsbad, California, USA). Slides were then mounted with Vectashield® Mounting Medium (Catalog #: H-1000, Vector Laboratories, Burlingame, California, USA). Images were acquired and analyzed with Zeiss Imager.Z2 microscope equipped with either Zeiss AxioVision or Zeiss ZEN 2012 software (Carl Zeiss Inc., Oberkochen, Germany). Anti-Collagen IV antibody, ab6586 from Abcam and LOXL2 antibody, GTX105085 from GeneTex were used.

FATP2 = experiment: Expression levels of FATPs and FFARs in adipose tissue by real-time PCR after peptide injection; assay type: in vivo, mice; conditions: 11 days post single injection in subcutaneous adipose tissue, GAPDH reference, n=4 per group
Description: Mice were injected with a single dose of either scramble peptide or PATAD or ADPIF. 11 days post injection, the mice were euthanized and adipose tissue was sampled for RNA extraction followed by real-time PCR.
For this study, mice were on a C57/BL6 genetic background. All animals were housed in a temperature and humidity controlled facility, with a 12 h-light/12 h-dark cycle fed during the whole phase mice will be fed with a 60% high fat diet from Research Diets (D12492), and tap water will be provided ad libitum. Mice were fed and tested regularly for glucose tolerance test for their glucose tolerance and once they were glucose intolerant they were used for treatment.
All peptides were initially dissolved in DMSO and then diluted in sterile saline solution at a concentration of 10 ng/μL. 2.5 μL of each peptide (stapled or scrambled) were mixed and then injected directly in the subcutaneous adipose tissue in each mouse.

[4] = system: fibrotic depots in the liver; experiment: Transmitted electron microscopy of liver sections for fibrotic depots; assay type: in vivo; conditions: DIO-NASH mice, 3 months after injection in subcutaneous adipose tissue
Description: For the electron microscopy imaging on the liver extracts, the samples were immersed in glutaraldehyde (2.5%) and paraformaldehyde (2.5%) in cacodylate buffer (0.1 M, pH 7.4). The samples were post-fixed in 1% osmium tetroxide, dehydrated through graded alcohol (50, 70, 90, and 100%) and propylene oxide for 30 minutes each, and embedded in Epon 812. Semithin sections were cut at 2 μm on an ultra microtome (Leica Ultracut UCT) and ultrathin sections were cut at 70 nm and contrasted with uranyl acetate and lead citrate and examined at 70 kv with a Morgagni 268D electron microscope. Images were captured digitally by Mega View III camera (Soft Imaging System).

[5] = system: ALT (alanine aminotransferase); experiment: Plasma ALT ELISA; assay type: in vivo, mice; conditions: 3 months after a single subcutaneous peptide injection, n=4
Description: (§5) Mice presented were euthanized and their plasma and organs were sampled for analysis. […] Cryosection of the livers were then stained with Adipored and DAPI to detect the level of lipid droplets. […] Hepatic function is assessed by two liver related strong biomarkers namely (AST (Aspartate Aminotransferase) and ALT (Alanine Aminotransferase)), whose levels increase proportionately with liver damage.
(§6) Plasma samples from the indicated mice were used to determine plasma content of either AST (aspartate aminotransferase) or […] (alanine aminotransferase) both robust indicators of liver damage were measured using commercially purchased ELISA kits. These parameters were determined according to manufacturer's procedure. • SEB214Mu (96 Tests): Enzyme-linked Immunosorbent Assay Kit For Aspartate Aminotransferase (AST), Cloud Clone Corp. • SEA207Mu (96 Tests): Enzyme-linked Immunosorbent Assay Kit For Alanine Aminotransferase (ALT), Cloud Clone Corp.

Collagen IV = experiment: Immunostaining of liver cryosections for Collagen IV (DIO-NASH); assay type: in vivo; conditions: DIO-NASH mice, 3 months after injection in subcutaneous adipose tissue; vs untreated
Description: as §4

[6] = system: AST (aspartate aminotransferase); experiment: Plasma AST ELISA; assay type: in vivo, mice; conditions: 3 months after a single subcutaneous peptide injection, n=4
Description: as §5, §6

GLP-1 = experiment: Circulating GLP-1 enzyme immunoassay in plasma; assay type: in vivo; conditions: 11 days post single adipose tissue injection, high fat/high glucose diet male mice
Description: Mice were injected with a single dose of either scramble peptide or PATAD or ADPIF. 11 days post injection, the mice were euthanized, and plasma was obtained and used for determination of circulating GLP1 from mice with the indicated treatment.
as §3
RayBio Human/Mouse/Rat GLP-1 Enzyme Immunoassay Kit, EIA-GLP1, RayBiotech were used with the indicated procedures from the manufacturer.

In the case of “VECTTREKEVLASLDKAAFLTQLHS (not fully specified (bridges)) [ADPIF, R and S carry the stapling, preferably 2-(7-octenyl)arginine and 2-(4-pentenyl)serine]”, the “hepatic protein content of FABP4” value (FABP4) is reported as “more potent than PATAD; also recorded: significantly reduced”, the “hepatic protein content of LOXL2” value (LOXL2 [1]) is reported as “more potent than PATAD; also recorded: significant decrease” and the “Liver triglyceride (mean ± SD)” value ([2]; 25 μg per mouse SC once weekly 4-9 wks of age, sacrifice 9 wks, n = 6) is reported as 35.1 ± 17.8 mg/g liver. The “liver triglyceride content compared with the Vehicle group” value ([2]; 25 μg per mouse SC once weekly 4-9 wks, Student's t-test) was “significant decrease”, the “LOXL2 expression in liver (immunostaining)” value (LOXL2 [3]) was “effective in preventing the progression of fibrotic markers; also recorded: reduced” and the “FATP2 expression level in the adipose tissue” value (FATP2) was “more active than PATAD peptide”. For the same sequence, the “fibrotic depots / lesions in liver by transmitted electron microscopy” value [4] was “no longer detected; also recorded: No such fibrotic depots were found”, the “circulating levels of ALT” value [5] was “dramatic decrease; also recorded: more active in reducing circulating levels of ALT” and the “Collagen IV expression in liver (immunostaining)” value (Collagen IV) was “effective in preventing the progression of fibrotic markers; also recorded: reduced”. For the same sequence, the “circulating levels of AST” value [6] was “dramatic decrease; also recorded: effective in reducing” and the “circulating levels of GLP-1” value (GLP-1) was “restored high circulating levels of GLP1, with ADPIF inducing a greater increase than PATAD; also recorded: more active than PATAD peptide; also recorded: restore GLP1 circulating levels back to lean controls”.
